In patent US11872228B2, “Pharmaceutical composition containing thiamine derivative for prevention or treatment of sepsis” (KYUNGPOOK NATIONAL UNIVERSITY INDUSTRY-ACADEMIC COOPERATION …, priority 2021, dated 2024):

Columns and labels:
[1] = system: LPS-induced sepsis mouse model; assay: Survival rate of murine sepsis model, allithiamine treatment; assay type: in vivo, C57BL/6J male mice
Experimental: The mice were intravenously (I.V.) administered 5 mg/kg allithiamine immediately before intraperitoneal injection of 50 mg/kg LPS, and then the survival rates were monitored (allithiamine 5 mg/kg co-treatment). In addition, the mice were intravenously administered 5 mg/kg allithiamine three hours after LPS injection, and then the survival rates were monitored (allithiamine 5 mg/kg 3 h-delayed co-treatment), and the results are shown in FIG. 3 and Table 2.

TNFα [2] = assay: Inhibition of TNFα expression in LPS-activated dendritic cells (ELISA of supernatants); assay type: cell-based, C57BL/6J male mice; conditions: for TNFα expression level relative to LPS alone: LPS-activated dendritic cells; for TNFα (pg/mL): dendritic cells, 100 ng/mL LPS 18 h
Experimental: (§1) The dendritic cells at 1×10^6 cells/mL were treated with benfotiamine and fursultiamine at different concentrations of 0, 1, 10, and 100 and allithiamine at different concentrations of 0, 1, and 10 μM.
Thereafter, the dendritic cells were activated with 100 ng/mL LPS for 18 hours.

CD40 = CD40 expression in CD11c+ dendritic cells by flow cytometry; assay type: cell-based, C57BL/6J male mice
Experimental: as §1
(§2) The dendritic cells were measured for CD40 and CD86 in CD11c+ cells by flow cytometry, and the results are shown in FIGS. 6A and 6B and Tables 5 and 6.

CD86 = CD86 expression in CD11c+ dendritic cells by flow cytometry; assay type: cell-based, C57BL/6J male mice
Experimental: as §1, §2

TNFα [3] = assay: Inhibition of TNFα expression in vivo (allithiamine along with LPS); set-up: species or system mice
Experimental: The inhibition of TNFα expression in vivo was investigated by the administration of 5 mg/kg allithiamine along with 50 mg/kg LPS, and the results are shown in FIG. 7A and Table 7.

TNFα [4] = assay: Inhibition of TNFα expression in LPS-activated dendritic cells (ELISA of supernatants); assay type: cell-based, C57BL/6J male mice; conditions: 10 μM; dendritic cells not stimulated by LPS
[5] = 1 μM, dendritic cells, 100 ng/mL LPS
[6] = 10 μM, dendritic cells not stimulated by LPS
[7] = 10 μM, dendritic cells, 100 ng/mL LPS
[8] = allithiamine 5 mg/kg along with LPS 50 mg/kg

Compound: C=CCSS/C(CCO)=C(/C)N(C=O)Cc1cnc(C)nc1N [Allithiamine, allithiamine]
- Percent survival (%) ([1]; 5 mg/kg i.v. 3 h-delayed treatment (3 h after 50 mg/kg LPS i.p.), 0 h): 100%
- Percent survival (%) ([1]; 5 mg/kg i.v. 3 h-delayed treatment, 50 mg/kg LPS, 20 h): 100%
- Percent survival (%) ([1]; 5 mg/kg i.v. 3 h-delayed treatment, 50 mg/kg LPS, 24 h): 100%
- Percent survival (%) ([1]; 5 mg/kg i.v. 3 h-delayed treatment, 50 mg/kg LPS, 28 h): 83.3%
- Percent survival (%) ([1]; 5 mg/kg i.v. 3 h-delayed treatment, 50 mg/kg LPS, 32 h): 83.3%
- Percent survival (%) ([1]; 5 mg/kg i.v. 3 h-delayed treatment, 50 mg/kg LPS, 36 h): 83.3%
- Percent survival (%) ([1]; 5 mg/kg i.v. 3 h-delayed treatment, 50 mg/kg LPS, 40 h): 83.3%
- Percent survival (%) ([1]; 5 mg/kg i.v. 3 h-delayed treatment, 50 mg/kg LPS, 44 h): 66.7%
- Percent survival (%) ([1]; 5 mg/kg i.v. 3 h-delayed treatment, 50 mg/kg LPS, 48 h): 66.7%
- Percent survival (%) ([1]; 5 mg/kg i.v. 3 h-delayed treatment, 50 mg/kg LPS, 52 h): 66.7%
- Percent survival (%) ([1]; 5 mg/kg i.v. 3 h-delayed treatment, 50 mg/kg LPS, 56 h): 66.7%
- Percent survival (%) ([1]; 5 mg/kg i.v. 3 h-delayed treatment, 50 mg/kg LPS, 60 h): 66.7%
- Percent survival (%) ([1]; 5 mg/kg i.v. co-treatment (immediately before 50 mg/kg LPS i.p.), 0 h): 100%
- Percent survival (%) ([1]; 5 mg/kg i.v. co-treatment, 50 mg/kg LPS, 20 h): 100%
- Percent survival (%) ([1]; 5 mg/kg i.v. co-treatment, 50 mg/kg LPS, 24 h): 83.3%
- Percent survival (%) ([1]; 5 mg/kg i.v. co-treatment, 50 mg/kg LPS, 28 h): 83.3%
- Percent survival (%) ([1]; 5 mg/kg i.v. co-treatment, 50 mg/kg LPS, 32 h): 83.3%
- Percent survival (%) ([1]; 5 mg/kg i.v. co-treatment, 50 mg/kg LPS, 36 h): 66.7%
- Percent survival (%) ([1]; 5 mg/kg i.v. co-treatment, 50 mg/kg LPS, 40 h): 66.7%
- Percent survival (%) ([1]; 5 mg/kg i.v. co-treatment, 50 mg/kg LPS, 44 h): 66.7%
- Percent survival (%) ([1]; 5 mg/kg i.v. co-treatment, 50 mg/kg LPS, 48 h): 66.7%
- Percent survival (%) ([1]; 5 mg/kg i.v. co-treatment, 50 mg/kg LPS, 52 h): 66.7%
- Percent survival (%) ([1]; 5 mg/kg i.v. co-treatment, 50 mg/kg LPS, 56 h): 66.7%
- Percent survival (%) ([1]; 5 mg/kg i.v. co-treatment, 50 mg/kg LPS, 60 h): 66.7%
- TNFα expression level relative to LPS alone (TNFα [2]; 1 μM): about 88.68%
- TNFα (pg/mL) (TNFα [2]; 1 μM): 4,654.84 pg/mL
- TNFα expression level relative to LPS alone (TNFα [2]; 10 μM): about 74.68%
- TNFα (pg/mL) (TNFα [2]; 10 μM): 3,919.75 pg/mL
- CD40 (Mean fluorescence intensity; MFI) (CD40; [5]): 1,998 MFI
- CD40 expression level relative to LPS alone (CD40; 10 μM, dendritic cells): about 49%
- CD40 (Mean fluorescence intensity; MFI) (CD40; [6]): 253 MFI
- CD40 (Mean fluorescence intensity; MFI) (CD40; [7]): 982 MFI
- CD86 (Mean fluorescence intensity; MFI) (CD86; [5]): 2,184 MFI
- CD86 expression level relative to LPS alone (CD86; 10 μM, dendritic cells): about 64%
- CD86 (Mean fluorescence intensity; MFI) (CD86; [6]): 304 MFI
- CD86 (Mean fluorescence intensity; MFI) (CD86; [7]): 1,704 MFI
- Reduction of TNFα expression relative to LPS alone (TNFα [3]; [8]): about 46.494%
- TNFα (pg/mL) (TNFα [3]; [8]): 2,084.883 pg/mL
- TNFα (TNFα [3]; allithiamine 5 mg/kg, without LPS): 82.442 pg/mL
- TNFα (TNFα [4]): 78.51 pg/mL
